Measured values taken from patent US20210284618A1, “FURANOCHALCONES AS INHIBITORS OF CYP1A1, CYP1A2 AND CYP1B1 FOR CANCER CHEMOPREVENTION” (Council of Scientific & Industrial Research, priority 2016, published 2021).

Tests used:
CYP1A1 [1] = target: T1, CYP1A1 (Homo sapiens, UniProt P04798); assay: In-vitro CYP450 1A1 enzyme inhibition in Saccharosomes; assay type: biochemical; settings: for inhibition at 20 min, 10 μM: human, Saccharosomes containing CYP1A1, pH 7.4, probe ethoxyresorufin (5 μM), % inhibition of CYP1A1 in Saccharosomes at 10 μM; for inhibition at 20 min, 10 μM / % inhibition of CYP1A1 in Saccharosomes at 10 μM: 10 μM test compound, 5 μM ethoxyresorufin
T1 construct: host or cells: yeast microsomes (Saccharosomes)
T1 sequence (P04798 1-512): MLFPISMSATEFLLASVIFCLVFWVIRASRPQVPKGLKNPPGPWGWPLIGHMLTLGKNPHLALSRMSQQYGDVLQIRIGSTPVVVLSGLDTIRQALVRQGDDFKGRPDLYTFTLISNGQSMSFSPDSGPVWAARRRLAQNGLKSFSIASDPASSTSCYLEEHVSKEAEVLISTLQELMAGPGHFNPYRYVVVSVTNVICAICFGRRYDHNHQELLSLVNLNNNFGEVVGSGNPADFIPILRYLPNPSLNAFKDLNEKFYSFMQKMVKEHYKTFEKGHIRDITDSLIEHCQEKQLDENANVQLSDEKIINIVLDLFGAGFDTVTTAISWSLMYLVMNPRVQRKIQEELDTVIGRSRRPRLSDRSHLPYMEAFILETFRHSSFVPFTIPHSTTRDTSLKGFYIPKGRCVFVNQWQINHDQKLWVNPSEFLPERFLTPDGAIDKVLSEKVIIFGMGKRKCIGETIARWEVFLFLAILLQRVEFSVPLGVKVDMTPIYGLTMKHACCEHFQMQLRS
Protocol: Example 23. In-vitro CYP450 1A1 enzyme inhibition in Saccharosomes™: The screening method utilizes 384-well microplates to rapidly ascertain relative percentage inhibition of CYP1A1 by a library of compounds. Each reaction was performed in black, clear-bottomed 384-well microplates. A reaction volume of 50 μl comprised of 0.5 pmol of the cytochrome P450 CYP1A1 (Saccharosomes), 5 μM of ethoxyresorufin substrate (which contributes 0.05% DMSO to the well), 10 μM of potential inhibitor test article (which contributes 0.5% DMSO to the well), A P450 reductase NADPH regenerating system (1.3 mM NADP+, 3.3 mM glucose-6-0.02 units phosphate and glucose-6-Phosphate dehydrogenase), potassium phosphate buffer (final well concentration 100 mM, pH 7.4) and water. Very small quantities of magnesium chloride and sodium citrate are added to the NADPH regenerating system, in line with standard published protocols. The potential inhibitor (test article) was pre-incubated with CYP1A1 of at least 20 minutes at 30° C. After this period, the remainder of the reagents required in the assay was added to initiate the process. The reaction mixture was incubated for another 20 minutes at 30° C. The reaction was stopped by adding an 80% acetonitrile, 20% 0.5 M Tris solution. The reactions were monitored using the Biotek Synergy HT plate reader by measuring the endpoint reaction at Excitation 530/(25 bandwidth) & Emission 590/(20 bandwidth) using a gain/sensitivity setting of 60. The mean of the quadruplicates of the negative control (solvent inactivated CYP1A1) was deducted from the mean of potential inhibitor (test article) samples. The percentage was then derived relative to the mean of the wells without inhibitor.
(§1) Example 25. IC50 determination for best compound against CYP1A1, CYP1B1 and other CYPs in Saccharosomes. Compounds were serially diluted to six different concentrations with 10% DMSO in a Sero-Well white microplate. The experiment was performed in a similar way as described above in examples 23 and 24.

CYP1A1 [2] = target: T1, CYP1A1; assay: CYP1A1 inhibition in HEK293 cells transfected with pcDNA3.1/CYP1A1 (live cells); assay type: cell-based; settings: for inhibition at 10 μM: human, HEK293 cells transfected with pcDNA3.1/CYP1A1 (live cells), probe EROD (5 μM), % inhibition of CYP1A1 in HEK293 cells at 10 μM
Protocol: Example 26. In-vitro CYP450 inhibition in HEK293 cells transfected with pcDNA3.1/CYP1A1 against 5 μM EROD. […] The HEK293 cells used here was procured from ‘European Collection of Authenticated Cell Cultures’ (catalog number. ECACC 85120602).

CYP1B1 = target: T2, CYP1B1 (Homo sapiens, UniProt Q16678); assay: In-vitro CYP450 1B1 enzyme inhibition in Saccharosomes; assay type: biochemical; parameters: purchased CYP Design Ltd; host or cells: yeast microsomes (Saccharosomes); settings: 10 μM test compound, 7-ethoxyresorufin; for inhibition at 10 μM: human, Saccharosomes (yeast-derived) with recombinant CYP1B1, probe 7-ethoxyresorufin (5 μl of 0.1 mM), % inhibition of CYP1B1 in Saccharosomes at 10 μM
T2 sequence (Q16678 1-543): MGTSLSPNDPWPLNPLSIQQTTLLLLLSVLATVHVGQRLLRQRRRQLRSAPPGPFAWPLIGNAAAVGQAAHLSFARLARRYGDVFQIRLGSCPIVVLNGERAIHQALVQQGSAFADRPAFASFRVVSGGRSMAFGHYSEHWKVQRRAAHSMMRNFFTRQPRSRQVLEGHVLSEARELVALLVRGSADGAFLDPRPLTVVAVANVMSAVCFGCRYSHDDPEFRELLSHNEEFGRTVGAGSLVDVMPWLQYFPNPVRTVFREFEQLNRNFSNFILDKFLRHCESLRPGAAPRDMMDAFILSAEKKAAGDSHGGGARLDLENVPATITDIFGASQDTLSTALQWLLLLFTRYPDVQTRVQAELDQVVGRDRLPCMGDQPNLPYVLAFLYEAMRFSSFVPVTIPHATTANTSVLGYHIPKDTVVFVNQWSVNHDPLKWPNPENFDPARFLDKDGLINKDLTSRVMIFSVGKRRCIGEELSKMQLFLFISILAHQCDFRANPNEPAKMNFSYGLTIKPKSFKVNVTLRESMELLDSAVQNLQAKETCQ
Protocol: Example 24. In-vitro CYP450 1B1 enzyme inhibition in Saccharosomes™: Regenerating system consists of: 5 μl Solution A (183 mg of NADP++183 mg of glucose-6-phosphate+654 μl of 1.0 M magnesium chloride solution+9.15 ml of sterile ultra-pure water)+1 μl Solution B (250 Units of glucose-6-phosphate dehydrogenase+6.25 ml of 5 mM sodium citrate; mixed in a tube and made up to 10 ml with sterile ultra-pure water)+39 μl 0.2 M Kpi (0.6 ml of 1.0M K2HPO4+9.4 ml of 1.0 M KH2PO4 were mixed and made up to 50 ml with sterile ultra-pure water)+5 μl potential inhibitory compound.
as §1

Row | Compound | inhibition at 20 min, 10 μM (CYP1A1 [1]) [%] | inhibition at 10 μM (CYP1A1 [2]; 10 μM, 5 μM EROD) [%] | inhibition at 10 μM (CYP1B1) [%] | further results
1 | COc1cccc(/C=C/C(=O)c2c(O)c(OC)c3occc3c2OC)c1OC [Compound 13, 3-(4,7-dimethoxy-6-hydroxybenzofuran-5-yl)-1-(2,3 dimethoxyphenyl)-3-oxopropene] | – | – | – | melting point: 260 to 262 °C
2 | COc1c(C(=O)/C=C/c2ccccc2F)c(O)c(OC)c2occc12 [Compound 23, 3-(2-fluorophenyl)-1-(6-hydroxy-4,7-dimethoxybenzofuran-5-yl)prop-2-en-1-one] | 41.1 | – | 34.2 | –
3 | COc1c(C(=O)/C=C/c2ccc3cc4ccccc4cc3c2)c(O)c(OC)c2occc12 [Compound 24, 3-(anthracen-2-yl)-1-(6-hydroxy-4,7-dimethoxybenzofuran-5-yl)prop-2-en-1-one] | 43.4 | – | 19.2 | –
4 | COc1c2occc2c(OC)c2c(=O)cc(C)oc12 [Compound 1, Khellin, reference compound] | 88 | – | – | % inhibition of CYP1A1 in Saccharosomes at 10 μM (CYP1A1 [1]): 88.3%
5 | COc1cc(OC)c(OC)cc1/C=C/C(=O)c1c(O)c(OC)c2occc2c1OC [Compound 18, 3-(4,7-dimethoxy-6-hydroxybenzofuran-5-yl)-1-(2,4,5-trimethoxyphenyl)-3-oxopropene] | > 80 | > 80 | – | % inhibition of CYP1A1 in Saccharosomes at 10 μM (CYP1A1 [1]): 92.2%; % inhibition of CYP1A1 in HEK293 cells at 10 μM (CYP1A1 [2]; 10 μM, 5 μM EROD): 96.8%
6 | COc1c(C(=O)/C=C/c2ccc(Br)cc2)c(O)c(OC)c2occc12 [Compound 3, 3-(4,7-dimethoxy-6-hydroxybenzofuran-5-yl)-1-(4-bromophenyl)-3-oxopropene] | – | – | – | melting point: 135 to 137 °C
7 | O=c1cc(-c2ccccc2)oc2c1ccc1ccccc12 [Alpha-naphthoflavone, reference compound] | 97 | 30 | – | IC50 (CYP1A1 [1]): 90 nM; IC50 (CYP1A1 [2]): > 10000 nM; % inhibition of CYP1B1 in Saccharosomes at 10 μM (CYP1B1): 98%
8 | COc1c(C(C)=O)c(O)c(OC)c2occc12 [Compound 2, 1-(6-hydroxy-4,7-dimethoxybenzofuran-5-yl)ethanone] | – | > 80 | – | –

Second part, led by results:

Row | inhibition at 20 min, 10 μM (CYP1A1 [1]) [%] | inhibition at 10 μM (CYP1A1 [2]; 10 μM, 5 μM EROD) [%] | inhibition at 10 μM (CYP1B1) [%] | Compound | further results
9 | 37 | 74 | – | COc1ccc(/C=C/C(=O)c2c(O)c(OC)c3occc3c2OC)cc1Br [Compound 17, 3-(4,7-dimethoxy-6-hydroxybenzofuran-5-yl)-1-(3-bromo-4-methoxyphenyl)-3-oxopropene] | –
10 | > 80 | > 80 | – | COc1c(C(=O)/C=C/c2ccccc2)c(O)c(OC)c2occc12 [Compound 16, 3-(4,7-dimethoxy-6-hydroxybenzofuran-5-yl)-1-(phenyl)-3-oxopropene] | –
11 | 49.7 | – | 25.8 | COc1c(C(=O)/C=C/c2ccc3ccccc3c2)c(O)c(OC)c2occc12 [Compound 22, 1-(6-hydroxy-4,7-dimethoxybenzofuran-5-yl)-3-(naphthalen-2-yl)prop-2-en-1-one] | –
12 | 48.4 | – | 41.6 | COc1c(C(=O)/C=C/c2ccc3c(c2)OCO3)c(O)c(OC)c2occc12 [Compound 19, 3-(benzo[d][1,3]dioxol-5-yl)-1-(6-hydroxy-4,7-dimethoxybenzofuran-5-yl)prop-2-en-1-one] | –
13 | > 80 | 71.4 | 51.4 | COc1c(C(=O)/C=C/c2ccc(Cl)cc2Cl)c(O)c(OC)c2occc12 [Compound 21, 3-(2,4-dichlorophenyl)-1-(6-hydroxy-4,7-dimethoxybenzofuran-5-yl)prop-2-en-1-one] | % inhibition of CYP1A1 in Saccharosomes at 10 μM (CYP1A1 [1]): 80.2%
14 | > 80 | 79.4 | > 80 | COc1c(C(=O)/C=C/c2ccsc2)c(O)c(OC)c2occc12 [Compound 20, 1-(6-hydroxy-4,7-dimethoxybenzofuran-5-yl)-3-(thiophen-3-yl)prop-2-en-1-one] | % inhibition of CYP1A1 in Saccharosomes at 10 μM (CYP1A1 [1]): 95.1%; % inhibition of CYP1B1 in Saccharosomes at 10 μM (CYP1B1; 10 µM): 84.0%
